From PMC8710297, “Identification of potent SENP1 inhibitors that inactivate SENP1/JAK2/STAT signaling pathway and overcome platinum drug resistance in ovarian cancer” (Clinical and Translational Medicine, 2021) come the findings set out here.

The assay addresses T1, SENP1(C603A) (Homo sapiens, UniProt Q9P0U3, C603A).
T1 construct: GST; made in house
T1 sequence (Q9P0U3 1-644 C603A): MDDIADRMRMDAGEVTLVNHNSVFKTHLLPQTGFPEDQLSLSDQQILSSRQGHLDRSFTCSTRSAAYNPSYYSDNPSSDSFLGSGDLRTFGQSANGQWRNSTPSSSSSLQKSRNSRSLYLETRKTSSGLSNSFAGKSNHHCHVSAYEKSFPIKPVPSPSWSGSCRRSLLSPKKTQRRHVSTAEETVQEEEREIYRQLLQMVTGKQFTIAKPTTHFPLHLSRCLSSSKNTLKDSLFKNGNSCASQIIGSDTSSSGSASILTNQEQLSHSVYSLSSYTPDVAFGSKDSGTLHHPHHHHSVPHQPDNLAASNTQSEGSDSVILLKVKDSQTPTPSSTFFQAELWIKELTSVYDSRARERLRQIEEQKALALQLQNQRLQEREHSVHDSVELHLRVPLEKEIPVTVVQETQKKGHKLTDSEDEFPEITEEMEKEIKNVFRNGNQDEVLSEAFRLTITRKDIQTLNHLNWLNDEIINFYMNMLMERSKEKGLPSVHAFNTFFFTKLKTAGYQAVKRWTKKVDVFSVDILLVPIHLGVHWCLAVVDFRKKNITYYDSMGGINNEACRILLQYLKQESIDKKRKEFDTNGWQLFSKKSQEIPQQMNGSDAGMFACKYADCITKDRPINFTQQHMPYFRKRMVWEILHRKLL
The assay can be described thus: UPLC-MS/MS of UA associated with IPs of SENP1 proteins. Type of assay: binding. To be noted: mass-spec and surface plasmon resonance analyses. The procedure:
FIGURE 2 UA directly interacts with Sentrin‐specific protease 1 (SENP1). (A) Cellular thermal shift assay to examine the interaction of UA with SENP1. IGROV1 CR cells pretreated with MG132 (10 μM, 1 h) were incubated with DMSO or UA for 4 h before being shifted to indicated temperatures. SENP1 stability was analyzed by using Western blot against SENP1 antibody. Right panel, quantification of non‐denatured SENP1 fraction shown in the left panel. (B) Cell‐free thermal shift assay to examine interactions of UA with SENP1. Purified SENP1 proteins were incubated with DMSO or UA for 4 h before being shifted to the indicated temperatures. SENP1 stability was analyzed by using Western blot against SENP1 antibody. Right panel, quantification of non‐denatured SENP1 fraction shown in the left panel. […] Stability of SENP1(C603A) was analyzed by using Western blot against SENP1 antibody. […] Left; Ultra‐high performance liquid‐chromatography‐MS/MS analyses of associated UA in indicated samples, right; quantification of data shown in left (the binding affinity of UA with SENP1‐C603A was normalized as 1). […]
Cell viability was detected using Sulforhodamine B (SRB) assay as described previously (3).
Absorbance at 51 0 nm was detected using a SpectraMax Re a d e r (Molecular Devices) and […]

As for `C[C@H]1[C@H](C)CC[C@]2(C(=O)O)CC[C@]3(C)C(=CC[C@@H]4[C@@]5(C)CC[C@H](O)C(C)(C)[C@@H]5CC[C@]43C)[C@H]12` [UA, ursolic acid, reference compound], the “binding of UA to SENP1(C603A) compared to SENP1” value is listed as “decreased binding affinities”.
